This passage reports IC50 results from BindingDB's records for patent US20250230171 (Moma Therapeutics, 2025).

Broadly, the IC50 is the midpoint of a concentration-inhibition curve.

The target of this assay is T1, DNA polymerase theta (POLQ) (2-894).
T1 construct: 2-894
The experiment in a line: ATPase Assay. Here is the method:
POLθ-mediated ATP hydrolysis was measured using the ADP-Glo Kinase Assay (Promega Corporation, Madison, WI). Reactions were performed in white 384-well small-volume microplates (Greiner Bio-One, Frickenhausen, Germany) using a total volume of 15 μL. The ATPase reaction consisted of 1 nM biotinylated Avi-POLθ[2-894], 5 nM of a 50 nucleotide poly-thymine repeat single-stranded DNA (PolyT(50) ssDNA), and 100 μM ATP in 5 μL of assay buffer (50 mM Tris, pH 7.5, 80 mM KCl, 10 MgCl2, 1 mM DTT, 5% glycerol, 0.01% BSA, 0.01% Tween-20). Inhibition of POLΘATPase activity was determined by preparing 11-point serial dilutions of the test compounds in 100% DMSO, then transferring 30 nL of the compounds into the ATPase reaction using an Echo acoustic liquid handler (Beckman Coulter, Brea, CA). DMSO-treated wells containing either all of the reaction components (1 nM biotinylated Avi-POLθ[2-894], 5 nM PolyT(50) ssDNA, 100 μM ATP) or with assay buffer substituted for the biotinylated Avi-POLθ[2-894](0 nM biotinylated Avi-POLθ[2-894], 5 nM PolyT(50) ssDNA, 100 μM ATP) were used to define the maximum and minimum response in the assay. Following a one-hour incubation at ambient temperature, 5 μL of ADP-Glo Reagent was added to the ATPase reaction, and this mixture was allowed to incubate at ambient temperature for an additional hour. Lastly, 5 μL of Kinase Detection Reagent was added, followed by a third one-hour incubation at ambient temperature. The reagent concentrations listed represent the amounts only in the 5 μL ATPase reaction volume.
`COc1ccc(C(=O)N2Cc3nc(NC(=O)c4cnc(C)cc4-c4cc(Cl)ncc4OC)sc3C2)nn1` [US20250230171, Compound 545] gave an IC50 of 32.5 nM.

Regarding `COc1cnc(Cl)cc1-c1cc(C)ncc1C(=O)Nc1nc2c(s1)CN(C(=O)c1ncc(Cl)cc1C(C)(F)F)C2` [US20250230171, Compound 595], the IC50 came out at 8 nM. With `COc1cnc(Cl)cc1-c1cc(C)ncc1C(=O)Nc1nc2c(s1)CN(C(=O)c1ncc(C(C)(F)F)cc1Cl)C2` [US20250230171, Compound 501], the IC50 was found to be 8 nM. Turning to `COc1cnc(Cl)cc1-c1cc(C)ncc1C(=O)Nc1nc2c(s1)CN(C(=O)c1nc(Cl)ccc1C)C2` [US20250230171, Compound 450], inhibition was half-maximal at 8 nM (IC50). `COc1cnc(Cl)cc1-c1cc(C)ncc1C(=O)Nc1nc2c(s1)CN(C(=O)C1CCCC(OC(F)(F)F)C1)C2` (racemic) [US20250230171, Compound 485]: the IC50 was 8 nM. The same measure for `COc1cnc(Cl)cc1-c1cc(C)ncc1C(=O)Nc1nc2c(s1)CN(C(=O)c1nc(C)c(C)o1)C2` [US20250230171, Compound 529]: 8 nM. Turning to `COc1cnc(Cl)cc1-c1cc(C)ncc1C(=O)Nc1nc2c(s1)CN(C(=O)c1ccc(OC)c3cncn13)C2` [US20250230171, Compound 502], the 50% inhibitory concentration (IC50) came out at 8 nM. This lies in the single-digit nanomolar range. `COc1cnc(Cl)cc1-c1cc(C)ncc1C(=O)Nc1nc2c(s1)CN(C(=O)c1cncn1C1CC1)C2` [US20250230171, Compound 527] registered an IC50 of 8 nM.

`COc1cnc(Cl)cc1-c1cc(C)ncc1C(=O)Nc1nc2c(s1)CN(C(=O)c1nn(C)cc1F)C2` [US20250230171, Compound 435] yielded an IC50 of 8 nM.

Compound `COc1cnc(Cl)cc1-c1cc(C)ncc1C(=O)Nc1nc2c(s1)CN(C(=O)c1cnn(C(F)(F)F)c1)C2` [US20250230171, Compound 513] registered an IC50 of 8 nM.

For `COc1cnc(Cl)cc1-c1cc(C)ncc1C(=O)Nc1nc2c(s1)CN(C(=O)c1cc(Cl)nn1C)C2` [US20250230171, Compound 436], the IC50 is 8 nM. In turn, `COc1ccc(C#N)cc1-c1cc(C)ncc1C(=O)Nc1nc2c(s1)CN(C(=O)c1ccc(C(F)F)cc1Cl)C2` [US20250230171, Compound 519] returned an IC50 of 8 nM. That is a single-digit nanomolar value.

The compound `COc1cnc(C(=O)N2Cc3nc(NC(=O)c4cnc(C)cc4-c4cc(Cl)ncc4OC)sc3C2)c(OC)n1` [US20250230171, Compound 440] displayed an IC50 of 8 nM.

`COc1cnc(Cl)cc1-c1cc(C)ncc1C(=O)Nc1nc2c(s1)CN(C(=O)c1ccc(OC(F)F)nc1)C2` [US20250230171, Compound 32] came in with an IC50 of 8 nM.

`COc1cnc(Cl)cc1-c1cc(C)ncc1C(=O)Nc1nc2c(s1)CN(C(=O)c1ccc(F)c(Cl)n1)C2` [US20250230171, Compound 411] registered an IC50 of 8 nM. In turn, `COc1cnc(Cl)cc1-c1cc(C)ncc1C(=O)Nc1nc2c(s1)CN(C(=O)c1cc(Cl)cc(C)n1)C2` [US20250230171, Compound 505] showed an IC50 of 8 nM.

`COc1cnc(Cl)cc1-c1cc(C)ncc1C(=O)Nc1nc2c(s1)CN(C(=O)c1nc(C)ncc1Cl)C2` [US20250230171, Compound 479] yielded an IC50 of 8 nM. For the compound `COc1ncc(Cl)cc1-c1cc(C)ncc1C(=O)Nc1nc2c(s1)CN(C(=O)c1cccc(C(F)F)n1)C2` [US20250230171, Compound 539], 32.5 nM corresponded to half-maximal inhibition (IC50). The same measure for `COc1cc2nn(C)cc2cc1-c1cc(C)ncc1C(=O)Nc1nc2c(s1)CN(C(=O)c1cccnc1OC)C2` [US20250230171, Compound 533]: 8 nM. The same measure for `COc1cnc(Cl)cc1-c1cc(C)ncc1C(=O)Nc1nc2c(s1)CN(C(=O)c1ccnc(C(F)(F)F)n1)C2` [US20250230171, Compound 443]: 8 nM. As for `COc1cnc(Cl)cc1-c1cc(C)ncc1C(=O)Nc1nc2c(s1)CN(C(=O)c1ncncc1OC)C2` [US20250230171, Compound 514], the IC50 was 8 nM. The same measure for `COc1ccc(C(=O)N2Cc3nc(NC(=O)c4cnc(C)cc4-c4cc(C#N)ccc4OC)sc3C2)c(Cl)c1` [US20250230171, Compound 516]: 8 nM; for `COc1cnc(Cl)cc1-c1cc(C)ncc1C(=O)Nc1nc2c(s1)CN(C(=O)C1CC3(CC(F)C3)C1)C2` (centres undefined) [US20250230171, Compound 473]: 8 nM; for `COc1cnc(Cl)cc1-c1cc(C)ncc1C(=O)Nc1nc2c(s1)CN(C(=O)c1nn(C)cc1N)C2` [US20250230171, Compound 458]: 8 nM. Compound `COc1cnc(Cl)cc1-c1cc(C)ncc1C(=O)Nc1nc2c(s1)CN(C(=O)C1CC3(CC(C)C3)C1)C2` (centres undefined) [US20250230171, Compound 418] showed an IC50 of 8 nM. The same measure for `COc1cnc(Cl)cc1-c1cc(C)ncc1C(=O)Nc1nc2c(s1)CN(C(=O)c1cc(Cl)cnc1OC)C2` [US20250230171, Compound 486]: 8 nM; for `COc1ccc(C#N)cc1-c1cc(C)ncc1C(=O)Nc1nc2c(s1)CN(C(=O)c1ccc(OC(F)F)cc1)C2` [US20250230171, Compound 503]: 8 nM.

As for `COc1cnc(Cl)cc1-c1cc(C)ncc1C(=O)Nc1nc2c(s1)CN(C(=O)c1ccc(C(F)F)nn1)C2` [US20250230171, Compound 454], the IC50 was found to be 8 nM. For `COc1cnc(Cl)cc1-c1cc(C)ncc1C(=O)Nc1nc2c(s1)CN(C(=O)c1cnc(C(F)F)cc1C)C2` [US20250230171, Compound 466], the IC50 is 8 nM.
